Holding throughout (assay): NCI-60 cell line screen, 48 h
Assay [1] relates to SK-MEL-5 melanoma.
The subject of assay [2] is RPMI-8226 leukemia.
In assay [3] the test system is HCT-116 colon.
In assay [4] the test system is HCT-15 colon.
Assay [5] deals with UACC-257 melanoma.
For assay [6], the system named is A498 renal.
For assay [7], the system named is K-562 leukemia.
Assay [8] deals with A549 NSCLC.
Assay [9] concerns NCI-H226 lung.
In assay [10] the test system is HS 578T breast.

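These data come from cells grown in 96-well plates and exposed to compound for 48 hours at five concentrations. Here, GI50 denotes the concentration required for 50% inhibition of growth. At the TGI there is no net growth.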

Consider `O=C(NCCCc1cn[nH]c1)c1ccc(-c2ccncc2)c(C#Cc2ccc(F)cc2)c1`, for which the GI50 in assay [1] is 2.3 µM; in assay [2], under 0.0113 µM; in assay [3], under 0.01 µM; in [4], under 0.01 µM; in [5], 17.6 µM; in [6], 20.1 µM. In addition, the GI50 in assay [7] is under 0.01 µM; in assay [8], 0.481 µM; in assay [9], 6.2 µM; in [10], 18.9 µM. For the same compound, the TGI is 16.6 µM in assay [1]; 9.54 µM in [2]; 15.2 µM in assay [3]; over 57.9 µM in [4]; over 100 µM in assay [5]; over 68.5 µM in assay [6]. Besides, the TGI is over 100 µM in [7], over 100 µM in assay [8], 51.3 µM in [9] and over 100 µM in [10].

Consider `C#Cc1cccc(Nc2nc(Cl)nc3cc(NC(=O)CCl)ccc23)c1`, for which the GI50 in [1] was 1.04 µM; in [2], 0.895 µM; in assay [3] it was 0.449 µM; in assay [4] it was 0.592 µM; in assay [5], 2.36 µM; in [6], 3.13 µM. Further, the GI50 is 0.792 µM in assay [7], 3.66 µM in assay [8], 1.61 µM in [9] and 1.43 µM in [10]. Besides, the TGI was determined as 3.36 µM in [1]; 4.61 µM in assay [2]; 0.975 µM in assay [3]; 2.03 µM in [4]; 5.82 µM in assay [5]; 6.32 µM in assay [6]. Further, the TGI was found to be 3.03 µM in assay [7], 8.51 µM in assay [8], 5.27 µM in [9] and 9.17 µM in [10].

With `C#C[C@@]1(O)[C@@H](CO)O[C@@H](n2cc(I)c3c(N)ncnc32)[C@@H]1O`, the GI50 in assay [1] was 0.209 µM; in assay [2], 0.343 µM; in assay [3], 0.0434 µM; in assay [4] it was 0.137 µM; in [5], 2.33 µM; in assay [6] it was 0.309 µM. For the same compound, the GI50 is 0.064 µM in [7], 0.298 µM in assay [8], 1.72 µM in [9] and 0.785 µM in assay [10]. Further, the TGI in assay [1] was 3.3 µM; in assay [2], 5.51 µM; in assay [3], over 100 µM; in assay [4], over 100 µM; in assay [5], 27.8 µM; in [6], 1.43 µM. Moreover, the TGI in assay [7] was over 100 µM; in assay [8] it was over 100 µM; in assay [9] it was over 100 µM; in assay [10], 7.83 µM.

For the compound `CS(=O)(=O)Nc1cccc(-c2ccc3ncnc(Nc4ccc(F)c(Cl)c4)c3c2)c1`, the GI50 was 1.64 µM in assay [1]; 2.07 µM in assay [2]; 1.59 µM in assay [3]; 1.47 µM in assay [4]; 2.05 µM in assay [5]; 0.118 µM in assay [6]. Moreover, the GI50 was 1.98 µM in [7], 1.58 µM in [8], 1.8 µM in assay [9] and 1.85 µM in [10]. Moreover, the TGI in assay [1] worked out at 3.19 µM; in [2], 7.59 µM; in [3] it was 3.29 µM; in assay [4], 3.86 µM; in assay [5] it was 5.07 µM; in assay [6], 2.27 µM. For the same compound, the TGI is 5.62 µM in [7], 7.49 µM in [8], 5.33 µM in assay [9] and 5.55 µM in assay [10].

With `COc1cc(OC)cc(C2C3=C(COC3=O)Nc3cc(OC)ccc32)c1` (stereo not given), the GI50 in assay [1] was under 0.01 µM; in assay [2], under 0.01 µM; in assay [3], under 0.01 µM; in assay [4], under 0.01 µM; in assay [5], over 36.9 µM; in [6] it was under 0.01 µM. In addition, the GI50 in assay [7], in assay [8], in [9] and in assay [10] was under 0.01 µM throughout. The TGI was 0.0178 µM in assay [1]; over 43.9 µM in assay [2]; 0.413 µM in assay [3]; over 42.6 µM in assay [4]; over 100 µM in assay [5]; under 0.0106 µM in assay [6]. The TGI was 13.4 µM in [7], 27.7 µM in assay [8], 0.0207 µM in assay [9] and over 64.3 µM in assay [10].

The values above are taken from PubChem BioAssay (NCI).
